Results as given in ChEMBL document CHEMBL1201862, “PubChem BioAssay data set” (2004).
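Cultured in 96-well plates, cells were exposed to test compound for 48 hours across five concentrations. Here, GI50 denotes the concentration required for 50% inhibition of growth.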 Active and inactive are the calls of the source. Cut-off read from the data, not from the text of the source: active = GI50 up to about 1.1 µM and inactive = higher.

Legend:
Assay in all cases: inhibition of tumour cell growth, NCI panel, 48 h
[1] = test system: SK-MEL-2
[2] = test system: CAKI-1
[3] = test system: NCI-H460
[4] = test system: OVCAR-3
[5] = test system: HT-29
[6] = test system: OVCAR-4
[7] = test system: HCC 2998
[8] = test system: BT-549
[9] = test system: NCI-H522
[10] = test system: A549
[11] = test system: IGROV-1
[12] = test system: HL-60
[13] = test system: MOLT-4
[14] = test system: SK-MEL-5
[15] = test system: Hs-578T
[16] = test system: HCT-116
[17] = test system: KM12
[18] = test system: UO-31
[19] = test system: Malme-3M

SMILES | GI50 [1] | GI50 [2] | GI50 [3] | GI50 [4] | GI50 [5] | GI50 [6] | GI50 [7] | GI50 [8] | GI50 [9] | GI50 [10] | GI50 [11] | GI50 [12] | GI50 [13] | GI50 [14] | GI50 [15] | GI50 [16] | GI50 [17] | GI50 [18] | GI50 [19]
CCCC(=O)NC1=C(Cl)C(=O)c2ccccc2C1=O | 2.39 µM (inactive) | 3 µM (inactive) | 3.64 µM (inactive) | 2.29 µM (inactive) | 8.49 µM (inactive) | 4.51 µM (inactive) | 4.22 µM (inactive) | 5.43 µM (inactive) | 1.13 µM (inactive) | 4.39 µM (inactive) | 5.07 µM (inactive) | 0.145 µM (active) | 2.56 µM (inactive) | 2.67 µM (inactive) | 5.25 µM (inactive) | 1.73 µM (inactive) | 3.01 µM (inactive) | 2.96 µM (inactive) | –
[N-]=[N+]=Nc1cc(=O)[nH]nc1-c1ccccc1 | – | – | > 100 µM (inactive) | > 100 µM (inactive) | > 100 µM (inactive) | > 100 µM (inactive) | > 100 µM (inactive) | > 100 µM (inactive) | > 100 µM (inactive) | > 100 µM (inactive) | > 100 µM (inactive) | > 100 µM (inactive) | > 100 µM (inactive) | – | > 100 µM (inactive) | > 100 µM (inactive) | > 100 µM (inactive) | > 100 µM (inactive) | > 100 µM (inactive)
CCOC(=O)c1cc2c([nH]1)c(OC(C)=O)cc1c2ccn1Cc1ccccc1 | > 100 µM (inactive) | > 100 µM (inactive) | > 100 µM (inactive) | > 100 µM (inactive) | > 100 µM (inactive) | > 100 µM (inactive) | > 100 µM (inactive) | > 100 µM (inactive) | – | > 100 µM (inactive) | > 100 µM (inactive) | > 100 µM (inactive) | > 100 µM (inactive) | > 100 µM (inactive) | > 100 µM (inactive) | > 100 µM (inactive) | > 100 µM (inactive) | > 100 µM (inactive) | > 100 µM (inactive)
Oc1c(C2=NNC(c3cccs3)C2)ccc2ccccc12 (stereo not drawn) | 40.5 µM (inactive) | 40.6 µM (inactive) | 14.8 µM (inactive) | 18 µM (inactive) | 17.9 µM (inactive) | 29.4 µM (inactive) | 14.8 µM (inactive) | 32.5 µM (inactive) | 21.9 µM (inactive) | 25.3 µM (inactive) | 14.5 µM (inactive) | – | 10.1 µM (inactive) | 23.2 µM (inactive) | 17.1 µM (inactive) | 16.4 µM (inactive) | 12 µM (inactive) | 32.4 µM (inactive) | 18.8 µM (inactive)
S=c1[nH]c2c(Cl)c(Cl)c(Cl)c(Cl)c2[nH]1 | – | 25.7 µM (inactive) | 19.4 µM (inactive) | 26.7 µM (inactive) | 24 µM (inactive) | 5.94 µM (inactive) | 0.955 µM (active) | 17.9 µM (inactive) | 1.2 µM (inactive) | 25.2 µM (inactive) | 14.1 µM (inactive) | 1.75 µM (inactive) | 4.8 µM (inactive) | 17.6 µM (inactive) | 18.5 µM (inactive) | 21.1 µM (inactive) | 15.5 µM (inactive) | 16 µM (inactive) | 14.9 µM (inactive)
CC12CC1C(c1cccc([N+](=O)[O-])c1)(c1cccc([N+](=O)[O-])c1)N=N2 (stereo not drawn) | 44.7 µM (inactive) | – | 27.4 µM (inactive) | 27.4 µM (inactive) | 28 µM (inactive) | 23.1 µM (inactive) | 34.5 µM (inactive) | 18.5 µM (inactive) | 6.7 µM (inactive) | 54.7 µM (inactive) | 20.3 µM (inactive) | 13 µM (inactive) | 28.3 µM (inactive) | 26.8 µM (inactive) | 21.9 µM (inactive) | 15.8 µM (inactive) | 19.6 µM (inactive) | 10.8 µM (inactive) | 18.2 µM (inactive)
Cc1cc2c(cc1Cl)SC(N/N=C(\N)c1ccc(Cl)cc1)=NS2(=O)=O | – | > 100 µM (inactive) | 52.7 µM (inactive) | 34.7 µM (inactive) | 52.8 µM (inactive) | 75.2 µM (inactive) | 40.6 µM (inactive) | 46.7 µM (inactive) | 30.6 µM (inactive) | 96.6 µM (inactive) | 31 µM (inactive) | 40.5 µM (inactive) | 45.7 µM (inactive) | > 100 µM (inactive) | 48.5 µM (inactive) | 46.2 µM (inactive) | 35.2 µM (inactive) | 42.7 µM (inactive) | 38.1 µM (inactive)
NS(=O)(=O)c1ccc2c(c1)OCCOCCOCCOCCO2 | – | > 100 µM (inactive) | > 100 µM (inactive) | – | > 100 µM (inactive) | – | > 100 µM (inactive) | > 100 µM (inactive) | > 100 µM (inactive) | > 100 µM (inactive) | > 100 µM (inactive) | > 100 µM (inactive) | > 100 µM (inactive) | > 100 µM (inactive) | > 100 µM (inactive) | > 100 µM (inactive) | > 100 µM (inactive) | > 100 µM (inactive) | > 100 µM (inactive)
COc1ccc(N2C(=O)C3c4[nH]c5cccc(Cl)c5c4C4CCC(C(C)(C)C)CC4C3C2=O)cc1 (stereo not drawn) | 94.6 µM (inactive) | > 100 µM (inactive) | > 100 µM (inactive) | > 100 µM (inactive) | > 100 µM (inactive) | > 100 µM (inactive) | > 100 µM (inactive) | > 100 µM (inactive) | > 100 µM (inactive) | > 100 µM (inactive) | > 100 µM (inactive) | – | > 100 µM (inactive) | > 100 µM (inactive) | 21.9 µM (inactive) | > 100 µM (inactive) | > 100 µM (inactive) | > 100 µM (inactive) | > 100 µM (inactive)
Nc1ccc(C(=O)N2CCC[C@H]2CO)c(N)c1 | > 100 µM (inactive) | > 100 µM (inactive) | > 100 µM (inactive) | > 100 µM (inactive) | > 100 µM (inactive) | > 100 µM (inactive) | > 100 µM (inactive) | > 100 µM (inactive) | > 100 µM (inactive) | > 100 µM (inactive) | > 100 µM (inactive) | > 100 µM (inactive) | > 100 µM (inactive) | > 100 µM (inactive) | > 100 µM (inactive) | > 100 µM (inactive) | > 100 µM (inactive) | > 100 µM (inactive) | –
Cc1cs/c(=N\C(P(=O)(O)O)P(=O)(O)O)n1C | – | > 100 µM (inactive) | > 100 µM (inactive) | > 100 µM (inactive) | > 100 µM (inactive) | – | > 100 µM (inactive) | > 100 µM (inactive) | > 100 µM (inactive) | > 100 µM (inactive) | > 100 µM (inactive) | < 0.01 µM (active) | > 100 µM (inactive) | 86.5 µM (inactive) | 10.1 µM (inactive) | > 100 µM (inactive) | > 100 µM (inactive) | > 100 µM (inactive) | > 100 µM (inactive)
C[C@@H](c1ccccc1)N1CN(C(=O)OCc2ccccc2)C(CO)C1=O (stereo partly drawn) | > 100 µM (inactive) | > 100 µM (inactive) | > 100 µM (inactive) | > 100 µM (inactive) | 70.3 µM (inactive) | > 100 µM (inactive) | > 100 µM (inactive) | > 100 µM (inactive) | > 100 µM (inactive) | > 100 µM (inactive) | > 100 µM (inactive) | > 100 µM (inactive) | > 100 µM (inactive) | > 100 µM (inactive) | > 100 µM (inactive) | > 100 µM (inactive) | > 100 µM (inactive) | – | > 100 µM (inactive)
COC(=O)[C@@H](COC(=O)/C=C/c1ccc(OC(C)=O)c(OC(C)=O)c1)NC(=O)/C=C/c1ccc(OC(C)=O)c(OC(C)=O)c1 | 21.7 µM (inactive) | 15.3 µM (inactive) | 18.5 µM (inactive) | 20.5 µM (inactive) | 22.4 µM (inactive) | 16.4 µM (inactive) | 21.8 µM (inactive) | 60.8 µM (inactive) | 13.2 µM (inactive) | 42.8 µM (inactive) | 32.4 µM (inactive) | 18.7 µM (inactive) | 38.5 µM (inactive) | 13.4 µM (inactive) | 25.2 µM (inactive) | 16 µM (inactive) | 25.1 µM (inactive) | – | 6.52 µM (inactive)
CC(=O)c1cc2c(s1)C(=O)c1ccsc1C2=O | 0.621 µM (active) | 2.12 µM (inactive) | – | 0.22 µM (active) | 1.85 µM (inactive) | 1.26 µM (inactive) | 1.74 µM (inactive) | 0.182 µM (active) | 0.16 µM (active) | 2.05 µM (inactive) | 1.75 µM (inactive) | 0.0442 µM (active) | 0.438 µM (active) | 0.0559 µM (active) | 0.158 µM (active) | 0.292 µM (active) | 1.61 µM (inactive) | 0.243 µM (active) | 0.146 µM (active)
O=C(O)CCC(C(=O)O)N1C(=O)c2ccccc2C1=O (stereo not drawn) | > 100 µM (inactive) | > 100 µM (inactive) | > 100 µM (inactive) | > 100 µM (inactive) | > 100 µM (inactive) | > 100 µM (inactive) | > 100 µM (inactive) | > 100 µM (inactive) | > 100 µM (inactive) | > 100 µM (inactive) | > 100 µM (inactive) | > 100 µM (inactive) | – | > 100 µM (inactive) | > 100 µM (inactive) | > 100 µM (inactive) | > 100 µM (inactive) | > 100 µM (inactive) | > 100 µM (inactive)
COS(C)(=O)=O [METHANESULFONIC ACID METHYL ESTER] | > 2 µM (inactive) | > 2 µM (inactive) | > 2 µM (inactive) | > 2 µM (inactive) | > 2 µM (inactive) | > 2 µM (inactive) | > 2 µM (inactive) | > 2 µM (inactive) | > 2 µM (inactive) | > 2 µM (inactive) | > 2 µM (inactive) | > 2 µM (inactive) | > 2 µM (inactive) | – | > 2 µM (inactive) | > 2 µM (inactive) | > 2 µM (inactive) | > 2 µM (inactive) | > 2 µM (inactive)
